Measurements taken from ChEMBL document CHEMBL5143749, “Discovery of Insulin/GLP-1/Glucagon Triagonists for the Treatment of Diabetes and Obesity” (ACS Med Chem Lett, 2022).

Legend:
Homo sapiens = species: Homo sapiens; experiment: Selectivity ratio of EC50 for human […] expressed in frozen cells to EC50 for human GLP1R expressed in frozen cells; type: cell-based
Glucagon receptor = Glucagon receptor (Homo sapiens, UniProt P47871); experiment: Agonist activity at human GCGR expressed in frozen cells assessed as measuring the cAMP level incubated for 1 hr by HitHunter chemiluminescence based assay; type: functional, cell-based
[1] = molecular target: Glucagon-like peptide 1 receptor (Homo sapiens, UniProt P43220); experiment: Agonist activity at human GLP1R expressed in frozen cells assessed as measuring the cAMP level incubated for 1 hr by HitHunter chemiluminescence based assay; type: functional, cell-based
Glucagon-like peptide 1 receptor, sequence (P43220 whole entry): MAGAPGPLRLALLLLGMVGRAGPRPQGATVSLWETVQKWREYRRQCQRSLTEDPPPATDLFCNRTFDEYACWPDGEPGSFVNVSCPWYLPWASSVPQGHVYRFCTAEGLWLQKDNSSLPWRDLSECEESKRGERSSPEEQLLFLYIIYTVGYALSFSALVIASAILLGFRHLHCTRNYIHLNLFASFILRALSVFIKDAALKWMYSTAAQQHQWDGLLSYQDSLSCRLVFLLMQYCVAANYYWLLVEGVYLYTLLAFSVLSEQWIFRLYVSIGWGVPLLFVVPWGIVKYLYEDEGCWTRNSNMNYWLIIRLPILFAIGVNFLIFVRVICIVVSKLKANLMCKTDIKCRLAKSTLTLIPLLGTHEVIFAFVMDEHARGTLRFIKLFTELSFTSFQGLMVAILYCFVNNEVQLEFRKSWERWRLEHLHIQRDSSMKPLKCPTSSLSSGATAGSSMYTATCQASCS

Glucagon receptor, sequence (P47871 whole entry): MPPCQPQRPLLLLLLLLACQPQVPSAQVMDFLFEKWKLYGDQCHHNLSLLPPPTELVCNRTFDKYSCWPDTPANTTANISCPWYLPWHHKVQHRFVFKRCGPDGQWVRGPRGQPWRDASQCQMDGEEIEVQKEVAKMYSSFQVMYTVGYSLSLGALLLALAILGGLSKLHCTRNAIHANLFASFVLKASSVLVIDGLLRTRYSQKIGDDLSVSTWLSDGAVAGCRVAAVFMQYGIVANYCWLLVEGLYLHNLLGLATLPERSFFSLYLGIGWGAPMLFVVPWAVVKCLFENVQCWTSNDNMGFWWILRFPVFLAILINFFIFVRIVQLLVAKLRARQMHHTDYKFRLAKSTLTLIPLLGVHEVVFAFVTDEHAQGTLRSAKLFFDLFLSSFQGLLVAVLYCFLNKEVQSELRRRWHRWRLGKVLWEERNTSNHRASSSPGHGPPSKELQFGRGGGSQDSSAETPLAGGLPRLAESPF

Row | EC50 (Glucagon receptor) [nM] | EC50 [1] [nM] | SMILES | Ratio EC50 (Homo sapiens)
1 |  |  | CCCCCCCCCCCCCCCC(=O)N[C@@H](CCC(=O)N[C@@H](CCC(=O)NCCCC[C@H](NC(=O)[C@H](CC(=O)O)NC(=O)[C@H](CO)NC(=O)[C@@H](NC(=O)[C@H](Cc1ccccc1)NC(=O)[C@@H](NC(=O)CNC(=O)[C@H](CCC(N)=O)NC(=O)[C@@H](CO)NC(=O)[C@@H](N)Cc1c[nH]cn1)[C@@H](C)O)[C@@H](C)O)C(=O)N[C@@H](CO)C(=O)N[C@@H](CCCCN)C(=O)N[C@@H](Cc1ccc(O)cc1)C(=O)N[C@@H](CC(C)C)C(=O)N[C@@H](CC(=O)O)C(=O)N[C@@H](CCC(=O)O)C(=O)N[C@@H](CCCNC(=N)N)C(=O)N[C@@H](C)C(=O)N[C@@H](C)C(=O)N[C@@H](CCCCNC(=O)COCCOCCNC(=O)CCCCN=[N+]=[N-])C(=O)N[C@@H](CC(=O)O)C(=O)N[C@@H](Cc1ccccc1)C(=O)N[C@H](C(=O)N[C@@H](CCC(N)=O)C(=O)N[C@@H](Cc1c[nH]c2ccccc12)C(=O)N[C@@H](CC(C)C)C(=O)N[C@@H](CC(C)C)C(=O)N[C@@H](CC(=O)O)C(=O)N[C@H](C(N)=O)[C@@H](C)O)C(C)C)C(=O)O)C(=O)O | 0.8
2 | 0.013 | 0.028 | CCCCCCCCCCCCCCCC(=O)N[C@@H](CCC(=O)N[C@@H](CCC(=O)NCCCC[C@H](NC(=O)[C@H](CC(=O)O)NC(=O)[C@H](CO)NC(=O)[C@@H](NC(=O)[C@H](Cc1ccccc1)NC(=O)[C@@H](NC(=O)CNC(=O)[C@H](CCC(N)=O)NC(=O)[C@@H](CO)NC(=O)[C@@H](N)Cc1c[nH]cn1)[C@@H](C)O)[C@@H](C)O)C(=O)N[C@@H](CO)C(=O)N[C@@H](CCCCN)C(=O)N[C@@H](Cc1ccc(O)cc1)C(=O)N[C@@H](CC(C)C)C(=O)N[C@@H](CC(=O)O)C(=O)N[C@@H](CCC(=O)O)C(=O)N[C@@H](CCCNC(=N)N)C(=O)N[C@@H](C)C(=O)N[C@@H](C)C(=O)N[C@@H](CCC(N)=O)C(=O)N[C@@H](CCCCN=[N+]=[N-])C(=O)N[C@@H](Cc1ccccc1)C(=O)N[C@H](C(=O)N[C@@H](CCC(N)=O)C(=O)N[C@@H](Cc1c[nH]c2ccccc12)C(=O)N[C@@H](CC(C)C)C(=O)N[C@@H](CC(C)C)C(=O)N[C@@H](CC(=O)O)C(=O)N[C@H](C(N)=O)[C@@H](C)O)C(C)C)C(=O)O)C(=O)O | 0.5
3 |  | 1.04 | CCCCCCCCCCCCCCCC(=O)N[C@@H](CCC(=O)N[C@@H](CCC(=O)NCCCC[C@H](NC(=O)[C@H](CC(=O)O)NC(=O)[C@H](CO)NC(=O)[C@@H](NC(=O)[C@H](Cc1ccccc1)NC(=O)[C@@H](NC(=O)CNC(=O)[C@H](CCC(N)=O)NC(=O)[C@@H](CO)NC(=O)[C@@H](N)Cc1c[nH]cn1)[C@@H](C)O)[C@@H](C)O)C(=O)N[C@@H](CO)C(=O)N[C@@H](CC(C)C)C(=O)N[C@@H](Cc1ccc(O)cc1)C(=O)N[C@@H](CC(C)C)C(=O)N[C@@H](CC(=O)O)C(=O)NC(C)(C)C(=O)N[C@@H](CCCNC(=N)N)C(=O)N[C@@H](C)C(=O)N[C@@H](C)C(=O)N[C@@H](CCC(N)=O)C(=O)N[C@@H](CC(=O)O)C(=O)N[C@@H](Cc1ccccc1)C(=O)N[C@H](C(=O)N[C@@H](CCC(N)=O)C(=O)N[C@@H](Cc1c[nH]c2ccccc12)C(=O)N[C@@H](CC(C)C)C(=O)N[C@@H](CC(C)C)C(=O)N[C@@H](CC(N)=O)C(=O)N[C@H](C(=O)N[C@@H](CCCCN=[N+]=[N-])C(=O)N[C@@H](CCC(N)=O)C(=O)O)[C@@H](C)O)C(C)C)C(=O)O)C(=O)O | 
4 |  |  | CCCCCCCCCCCCCCCC(=O)N[C@@H](CCC(=O)N[C@@H](CCC(=O)NCCCC[C@H](NC(=O)[C@H](CC(=O)O)NC(=O)[C@H](CO)NC(=O)[C@@H](NC(=O)[C@H](Cc1ccccc1)NC(=O)[C@@H](NC(=O)CNC(=O)[C@H](CCC(N)=O)NC(=O)[C@@H](CO)NC(=O)[C@@H](N)Cc1cnc[nH]1)[C@@H](C)O)[C@@H](C)O)C(=O)N[C@@H](CO)C(=O)N[C@@H](CCCCN)C(=O)N[C@@H](Cc1ccc(O)cc1)C(=O)N[C@@H](CC(C)C)C(=O)N[C@@H](CC(=O)O)C(=O)N[C@@H](C)C(=O)N[C@@H](CCCNC(=N)N)C(=O)N[C@@H](C)C(=O)N[C@@H](C)C(=O)N[C@@H](CCC(N)=O)C(=O)N[C@@H](CC(=O)O)C(=O)N[C@@H](Cc1ccccc1)C(=O)N[C@H](C(=O)N[C@@H](CCC(N)=O)C(=O)N[C@@H](Cc1c[nH]c2ccccc12)C(=O)N[C@@H](CC(C)C)C(=O)N[C@@H](CC(C)C)C(=O)N[C@@H](CC(=O)O)C(=O)N[C@H](C(N)=O)[C@@H](C)O)C(C)C)C(=O)O)C(=O)O | 0.9
5 |  |  | CCCCCCCCCCCCCCCC(=O)N[C@@H](CCC(=O)N[C@@H](CCC(=O)NCCCC[C@H](NC(=O)[C@H](CC(=O)O)NC(=O)[C@H](CO)NC(=O)[C@@H](NC(=O)[C@H](Cc1ccccc1)NC(=O)[C@@H](NC(=O)CNC(=O)[C@H](CCC(N)=O)NC(=O)C(C)(C)NC(=O)[C@@H](N)Cc1c[nH]cn1)[C@@H](C)O)[C@@H](C)O)C(=O)N[C@@H](CO)C(=O)N[C@@H](CCCCN)C(=O)N[C@@H](Cc1ccc(O)cc1)C(=O)N[C@@H](CC(C)C)C(=O)N[C@@H](CC(=O)O)C(=O)NC(C)(C)C(=O)N[C@@H](CCCNC(=N)N)C(=O)N[C@@H](C)C(=O)N[C@@H](C)C(=O)N[C@@H](CCC(N)=O)C(=O)N[C@@H](CC(=O)O)C(=O)N[C@@H](Cc1ccccc1)C(=O)N[C@H](C(=O)N[C@@H](CCC(N)=O)C(=O)N[C@@H](Cc1c[nH]c2ccccc12)C(=O)N[C@@H](CC(C)C)C(=O)N[C@@H](CC(C)C)C(=O)N[C@@H](CC(=O)O)C(=O)N[C@H](C(=O)N[C@@H](CCCCN)C(=O)N[C@@H](CCCCN=[N+]=[N-])C(N)=O)[C@@H](C)O)C(C)C)C(=O)O)C(=O)O | 1.4
